Values after ≈ are worked out from the molar mass of the structure shown.
How the values were obtained:
Canidae = details: chronic; duration: 1 years; oral; Dog Other; organ weight
Rattus norvegicus = details: oral
Typhlodromus pyri = details: not reported; other
Colinus virginianus = details: acute; oral; mortality
Daphnia magna = details: chronic/long-term; duration: 21 days; reproduction

Structure (SMILES): CCN(CC)C(=O)C(C)Oc1cccc2ccccc12 (configuration not stated) [Napropamide]
- NOAEL (Canidae): 50 mg/kg-day
- LD50 (Rattus norvegicus; acute, mortality): 4680 mg/kg
- NOAEL (Rattus norvegicus; chronic, duration: 2 years, body weight): 30 mg/kg-day
- LEL (Typhlodromus pyri): 4500 g/ha
- LC50 (Oncorhynchus mykiss; acute, duration: 96 hours, mortality): 6.6 µg/mL (≈ 24.3 µM)
- NOEC (Oncorhynchus mykiss; chronic/long-term, duration: 28 days, growth): 1.1 mg/L
- LD50 (Colinus virginianus): > 2250 mg/kg
- LC50 (Tagia sp.; acute, duration: 14 days, mortality): 564 mg/kg
- NOEC (Tagia sp.; chronic/long-term, reproduction): 60 mg/kg
- NOEC (Daphnia magna): 4.3 mg/L
- NOEL (Anas platyrhynchos; reproductive, reproduction): 309 mg/kg-day
- LC50 (Anas platyrhynchos; short-term, oral, feed, mortality): > 1570 mg/kg-day

— EPA's ToxValDB 9.5 (doi:10.2903/j.efsa.2010.1565)
